Results: BigSolDB 2.1

CO[C@H]1/C=C/O[C@@]2(C)Oc3c(C)c(O)c4c(O)c(c(/C=N/N5CCN(C)CC5)c(O)c4c3C2=O)NC(=O)/C(C)=C\C=C\[C@H](C)[C@H](O)[C@@H](C)[C@@H](O)[C@@H](C)[C@H](OC(C)=O)[C@@H]1C
solubility (mole fraction)
Settings | in ethanol | in ethyl acetate | in eugenol | in isopropanol | in isopropyl myristate | in limonene | in sec-butanol | in transcutol | in triacetin
298.2 K | 0.00011 | 0.00054 | 0.00028 | 0.00073 | 0.0031 | 0.0023 | 0.00048 | 0.00097 | 0.00049
303.2 K | 0.00016 | 0.00074 | 0.00031 | 0.00089 | 0.0038 | 0.0036 | 0.00051 | 0.0013 | 0.00052
308.2 K | 0.00023 | 0.00088 | 0.00039 | – | 0.0043 | 0.0052 | 0.00059 | 0.0025 | 0.00072
313.2 K | 0.00036 | 0.0091 | 0.00043 | 0.0016 | 0.0047 | 0.0085 | 0.00076 | 0.0049 | 0.00073
318.2 K | 0.00053 | 0.013 | 0.00059 | 0.0017 | – | – | – | 0.018 | 0.00088

Settings | solubility (mole fraction)
in span 80, 298.2 K | 0.00058
in span 80, 303.2 K | 0.00064
in span 80, 308.2 K | 0.00079
in span 80, 313.2 K | 0.00085
in span 80, 318.2 K | 0.00099
